Holding throughout (test): In vitro antibacterial evaluation: minimum inhibitory concentration (MIC), broth dilution method
Assay type in all cases: cell-based

The test system of test [1] is Staphylococcus sp. To be noted: 18 hours at 35° C. As to the method: (§1) The minimum inhibitory concentration (MIC), the lowest concentration of the antibiotic which inhibits growth of the test organism, is determined by the broth dilution method using Muller-Hinton II […] (Baltimore Biological Laboratories) following the recommendations of the National Committee for Clinical Laboratory Standards [Methods for dilution antimicrobial susceptibility tests for bacteria that grow aerobically, approved standard M7-A2, National Committee for Clinical Laboratory Standards, Villanova, Pa].
(§2) An inoculum level of 5×10^5 CFU/mL, and a range of antibiotic concentrations (64-0.06 μg/mL) is used. […] The test organisms include a spectrum of Gram-positive bacteria comprised of Staphylococcus sp., Streptococcus sp. and Enterococcus sp. These organisms include recent clinical isolates that are resistant to methicillin, penicillin and/or vancomycin.

Test [2] deals with Streptococcus sp. To be noted: 18 hours at 35° C. As to the method: as §1, §2
Test [3] deals with Enterococcus sp. To be noted: broth dilution, 18 hours at 35° C. As to the method:
as §1, §2

[4] abbreviates: broth dilution, inoculum 5×10^5 CFU/mL.
[5] abbreviates: Streptococcus agalactiae (GC 4564), broth dilution.
Setting [6] is: Streptococcus pneumoniae (ATCC 6301), broth dilution.
The mark [7] stands for this setting: Streptococcus pneumoniae (GC 1894), broth dilution.
The mark [8] stands for this setting: Streptococcus pneumoniae (GC 4565), broth dilution.
[9] abbreviates: Streptococcus pyogenes (GC 4563), broth dilution.

≈ marks a conversion by molar mass, not a printed value. Numbered stars: 1 amine (or outer) side, 2 acyl side, 3 side chain; on linkers, the order of the positions; unused ones are H or OH. Square brackets hold non-standard residues; d marks the D form. Peptide text beside a SMILES is read from it. X5 = N=C1NCC(C(O)[C@@H](N[*:1])C(=O)[*:2])N1; X4 = N=C1NCC(C(O)[C@H](N[*:1])C(=O)[*:2])N1; Cha = N[C@@H](CC1CCCCC1)C(=O)O; dCha = N[C@H](CC1CCCCC1)C(=O)O

With `N=C1NCC(C(O)[C@@H]2NC(=O)[C@@H](CC3CCCCC3)NC(=O)[C@H](CC3CCCCC3)NC(=O)CNC(=O)[C@H](CO)NC(=O)[C@@H](C(O)C3CNC(=N)N3)NC2=O)N1` (stereo partly drawn) [Example 58, Cyclo[3-cyclohexylalanyl-3-cyclohexylalanyl-3-(2-iminoimidazolidin-4-yl)seryl-3-(2-iminoimidazolidin-4-yl)-serylserylglycyl]] (cyclo([Cha][dCha][X4][X5]SG)), in test [1] (broth dilution), the “MIC Coagulase Negative Staphylococcus (GC 4547)” value came to 4 µg/mL (≈ 5.06 µM), the “MIC Coagulase Negative Staphylococcus (GC 4548)” value turned out to be 4 µg/mL (≈ 5.06 µM), the “MIC Coagulase Negative Staphylococcus (GC 4549)” value was 4 µg/mL (≈ 5.06 µM) and the “MIC Coagulase Negative Staphylococcus (GC 4551)” value was determined as 8 µg/mL (≈ 10.1 µM). Further, in test [1] (broth dilution), the “MIC Staphylococcus haemolyticus (GC 4546)” value was determined as 4 µg/mL (≈ 5.06 µM). Further, in test [1] (strain ATCC 29213, broth dilution), the “MIC Staphylococcus aureus (ATCC 29213)” value was determined as 16 µg/mL (≈ 20.2 µM). Moreover, the “MIC Staphylococcus aureus (GC 4542)” value in test [1] (strain GC 4542, broth dilution) came to 16 µg/mL (≈ 20.2 µM). The “MIC Staphylococcus aureus (GC 4544)” value in test [1] (strain GC 4544, broth dilution) was determined as 16 µg/mL (≈ 20.2 µM).
On to `CC(c1ccccc1)C1NC(=O)CNC(=O)C(CO)NC(=O)C(C(O)C2CNC(=N)N2C2OC(CO)C(O)C(O)C2O)NC(=O)C(C(O)C2CNC(=N)N2)NC(=O)C(Cc2ccc(OC3OC(CO)C(OC4OC(CO)C(O)C(O)C4OCc4ccc(OCc5ccccc5)cc4)C(O)C3O)cc2)NC1=O` (stereo not drawn) [Example 231b, Cyclo[glycyl-β-methylphenylalanyl-O-[4-O-[2-O-[4-(phenylmethoxy)benzyl]hexopyranosyl]-hexopyranosyl]tyrosyl-3-(2-iminoimidazolidin-4-yl)seryl-3-(3-hexopyranosyl-2-iminoimidazolidin-4-yl)serylseryl]], for which the “MIC Streptococcus agalactiae (GC 4564)” value in test [2] (Streptococcus agalactiae (GC 4564)) and in test [2] (setting [4]) was 1 to 8 µg/mL throughout. Besides, the “MIC Streptococcus pneumoniae (GC 1894)” value in test [2] (Streptococcus pneumoniae (GC 1894)) and in test [2] (setting [4]) was less than 0.06 to 2 µg/mL in each case. The “MIC Streptococcus pneumoniae (GC 4565)” value in test [2] (Streptococcus pneumoniae (GC 4565)) and in test [2] (setting [4]) was 0.5 to 8 µg/mL throughout. The “MIC Streptococcus pyogenes (GC 4563)” value in test [2] (Streptococcus pyogenes (GC 4563)) and in test [2] (setting [4]) was 1 to 8 µg/mL throughout. Moreover, in test [1] (Coagulase Negative Staphylococcus (GC 6257)), the “MIC Coagulase Negative Staphylococcus (GC 6257)” value lay within 12 to 32 µg/mL.
For the compound `CC(C1CCCCC1)C1NC(=O)CNC(=O)C(CO)NC(=O)C(C(O)C2CNC(=N)N2C2OC(CO)C(O)C(O)C2O)NC(=O)C(C(O)C2CNC(=N)N2)NC(=O)C(CC2CCC(OC3OC(CO)C(OC4OC(CO)C(O)C(O)C4O)C(O)C3O)CC2)NC1=O` (stereo not drawn) [Example 53a, Cyclo[3-[4-[(4-O-hexopyranosylhexopyranosyl)oxy]cyclohexyl]alanyl-3-(2-iminoimidazolidin-4-yl)seryl-3-(3-hexopyranosyl-2-iminoimidazolidin-4-yl)serylserylglycyl-3-cyclohexyl-2-aminobutanoyl]], the “MIC Streptococcus agalactiae (GC 4564)” value in test [2] (setting [5]) and in test [2] (broth dilution) was 64 µg/mL (≈ 49 µM) throughout. Moreover, the “MIC Streptococcus pneumoniae (ATCC 6301)” value in test [2] (setting [6]) and in test [2] (broth dilution) was 64 µg/mL (≈ 49 µM) in each case. Further, the “MIC Streptococcus pneumoniae (GC 1894)” value in test [2] (setting [7]) and in test [2] (broth dilution) was 32 µg/mL (≈ 24.5 µM) in each case. Besides, the “MIC Streptococcus pneumoniae (GC 4565)” value in test [2] (setting [8]) and in test [2] (broth dilution) was 64 µg/mL (≈ 49 µM) each time. Also, the “MIC Streptococcus pyogenes (GC 4563)” value in test [2] (setting [9]) and in test [2] (broth dilution) was 64 µg/mL (≈ 49 µM) each time.
As to `Cc1cccc(Oc2ccc(-c3nc4cc(C[C@@H]5NC(=O)[C@H](C(C)c6ccccc6)NC(=O)CNC(=O)[C@H](CO)NC(=O)[C@H](C(O)C6CNC(=N)N6)NC(=O)[C@H](C(O)C6CNC(=N)N6)NC5=O)ccc4o3)cc2)c1` (stereo partly drawn) [Example 41, Cyclo[3-[2-[4-(3-methylphenoxy)phenyl]benzoxazol-5-yl]alanyl-3-(2-iminoimidazolidin-4-yl)-seryl-3-(2-iminoimidazolidin-4-yl)serylserylglycyl-β-methylphenylalanyl]], the “MIC Staphylococcus haemolyticus (GC 4546)” value in test [1] (strain GC 4546, broth dilution) stood at 64 µg/mL (≈ 63 µM). In test [1] (strain GC 4547, broth dilution), the “MIC Coagulase Negative Staphylococcus (GC 4547)” value stood at 64 µg/mL (≈ 63 µM). The “MIC Coagulase Negative Staphylococcus (GC 4548)” value in test [1] (strain GC 4548, broth dilution) is more than 64 µg/mL. Further, the “MIC Coagulase Negative Staphylococcus (GC 4549)” value in test [1] (strain GC 4549, broth dilution) came out at 32 µg/mL (≈ 31.5 µM). In addition, the “MIC Coagulase Negative Staphylococcus (GC 4551)” value in test [1] (strain GC 4551, broth dilution) turned out to be 64 µg/mL (≈ 63 µM). Further, the “MIC Enterococcus faecalis (GC 6189)” value in test [3] (Enterococcus faecalis (GC 6189)) is more than 64 µg/mL.
As to `CC(C)C(=O)Nc1cc(CC2NC(=O)C(C(C)c3ccccc3)NC(=O)CNC(=O)C(CO)NC(=O)C(C(O)C3CNC(=N)N3C3OC(CO)C(O)C(O)C3O)NC(=O)C(C(O)C3CNC(=N)N3)NC2=O)ccc1O` (stereo not drawn) [Example 15, Cyclo[glycyl-β-methylphenylalanyl-3-(2-methylpropanamido)tyrosyl-3-(2-iminoimidazolidin-4-yl)seryl-3-(3-hexopyranosyl-2-iminoimidazolidin-4-yl)serylseryl]], the “MIC Streptococcus pneumoniae (GC 4565)” value in test [2] (setting [8]) and in test [2] (broth dilution) was 64 µg/mL (≈ 60.6 µM) in each case.
Take `CC(c1ccccc1)C1NC(=O)CNC(=O)C(CO)NC(=O)C(C(O)C2CNC(=N)N2C2OC(CO)C(O)C(O)C2O)NC(=O)C(C(O)C2CNC(=N)N2)NC(=O)C(Cc2ccc3oc(=O)[nH]c3c2)NC1=O` (stereo not drawn) [Example 22, Cyclo[3-(2,3-dihydro-2-oxo-1,3-benzoxazol-5-yl)alanyl-3-(2-iminoimidazolidin-4-yl)seryl-3-(3-hexopyranosyl-2-iminoimidazolidin-4-yl)serylserylglycyl-β-methylphenylalanyl]]: the “MIC Streptococcus agalactiae (GC 4564)” value in test [2] (setting [5]) and in test [2] (broth dilution) was 32 µg/mL (≈ 31.6 µM) each time. Besides, the “MIC Streptococcus pneumoniae (ATCC 6301)” value in test [2] (setting [6]) and in test [2] (broth dilution) was 8 µg/mL (≈ 7.91 µM) in each case. Moreover, the “MIC Streptococcus pneumoniae (GC 1894)” value in test [2] (setting [7]) and in test [2] (broth dilution) was 8 µg/mL (≈ 7.91 µM) each time. For the same compound, the “MIC Streptococcus pneumoniae (GC 4565)” value in test [2] (setting [8]) and in test [2] (broth dilution) was 8 µg/mL (≈ 7.91 µM) throughout. Moreover, the “MIC Streptococcus pyogenes (GC 4563)” value in test [2] (setting [9]) and in test [2] (broth dilution) was 32 µg/mL (≈ 31.6 µM) throughout. For the same compound, the “MIC Enterococcus faecium (GC 4557)” value in test [3] (Enterococcus faecium (GC 4557)) and in test [3] was 64 µg/mL (≈ 63.2 µM) in each case.
With `Cc1ccc(OC(=O)Nc2cc(CC3NC(=O)C(C(C)c4ccccc4)NC(=O)CNC(=O)C(CO)NC(=O)C(C(O)C4CNC(=N)N4C4OC(CO)C(O)C(O)C4O)NC(=O)C(C(O)C4CNC(=N)N4)NC3=O)ccc2O)cc1` (stereo not drawn) [Example 19, Cyclo[glycyl-β-methylphenylalanyl-3-[[(4-methylphenoxy)carbonyl]amino]tyrosyl-3-(2-iminoimidazolidin-4-yl)seryl-3-(3-hexopyranosyl-2-iminoimidazolidin-4-yl)serylseryl]], the “MIC Streptococcus pneumoniae (GC 1894)” value in test [2] (setting [7]) and in test [2] (broth dilution) was 64 µg/mL (≈ 57.1 µM) in each case.
On to `CCC(=O)Nc1cc(CC2NC(=O)C(C(C)c3ccccc3)NC(=O)CNC(=O)C(CO)NC(=O)C(C(O)C3CNC(=N)N3C3OC(CO)C(O)C(O)C3O)NC(=O)C(C(O)C3CNC(=N)N3)NC2=O)ccc1O` (stereo not drawn) [Example 14, Cyclo[glycyl-β-methylphenylalanyl-3-(propanamido)tyrosyl-3-(2-iminoimidazolidin-4-yl)seryl-3-(3-hexopyranosyl-2-iminoimidazolidin-4-yl)serylseryl]], for which the “MIC Streptococcus pneumoniae (GC 4565)” value in test [2] (setting [8]) and in test [2] (broth dilution) was 64 µg/mL (≈ 61.4 µM) each time.

These data come from patent publication US8247211B2, “Glycopeptide antibiotics” (American Cyanamid Company, priority 2001, dated 2012).
